This is an account of results in ChEMBL document CHEMBL3425418 (Bioorg Med Chem Lett, 2015).

For data set [1], the species on record is Homo sapiens. Description: Toxicity in metastatic renal cell carcinoma patient assessed as dysphonia. Format: organism-based.
The species named for data set [2] is Homo sapiens. Description: Toxicity in metastatic renal cell carcinoma patient assessed as hypertension. In kind it is organism-based.
Data set [3] in a line: AUC (0 to time) in Sprague-Dawley rat at 2.5 mg/kg, po. In kind it is ADME, organism-based. The arrangement: dose 2.5 mg/kg, route oral. To be noted: plasma.
Data set [4] can be described thus: Cmax in Sprague-Dawley rat at 2.5 mg/kg, po. Format: ADME, organism-based. Also noted: dose 2.5 mg/kg, route oral. To be noted: in vivo.
Data set [5] can be described thus: Mean residence time in Sprague-Dawley rat at 2.5 mg/kg, po. In kind it is ADME, organism-based. Also noted: dose 2.5 mg/kg, route oral. The following applies: in vivo.
The target of data set [6] is T1, Ephrin type-B receptor 2 (Homo sapiens, UniProt P29323).
T1 sequence (P29323 whole entry): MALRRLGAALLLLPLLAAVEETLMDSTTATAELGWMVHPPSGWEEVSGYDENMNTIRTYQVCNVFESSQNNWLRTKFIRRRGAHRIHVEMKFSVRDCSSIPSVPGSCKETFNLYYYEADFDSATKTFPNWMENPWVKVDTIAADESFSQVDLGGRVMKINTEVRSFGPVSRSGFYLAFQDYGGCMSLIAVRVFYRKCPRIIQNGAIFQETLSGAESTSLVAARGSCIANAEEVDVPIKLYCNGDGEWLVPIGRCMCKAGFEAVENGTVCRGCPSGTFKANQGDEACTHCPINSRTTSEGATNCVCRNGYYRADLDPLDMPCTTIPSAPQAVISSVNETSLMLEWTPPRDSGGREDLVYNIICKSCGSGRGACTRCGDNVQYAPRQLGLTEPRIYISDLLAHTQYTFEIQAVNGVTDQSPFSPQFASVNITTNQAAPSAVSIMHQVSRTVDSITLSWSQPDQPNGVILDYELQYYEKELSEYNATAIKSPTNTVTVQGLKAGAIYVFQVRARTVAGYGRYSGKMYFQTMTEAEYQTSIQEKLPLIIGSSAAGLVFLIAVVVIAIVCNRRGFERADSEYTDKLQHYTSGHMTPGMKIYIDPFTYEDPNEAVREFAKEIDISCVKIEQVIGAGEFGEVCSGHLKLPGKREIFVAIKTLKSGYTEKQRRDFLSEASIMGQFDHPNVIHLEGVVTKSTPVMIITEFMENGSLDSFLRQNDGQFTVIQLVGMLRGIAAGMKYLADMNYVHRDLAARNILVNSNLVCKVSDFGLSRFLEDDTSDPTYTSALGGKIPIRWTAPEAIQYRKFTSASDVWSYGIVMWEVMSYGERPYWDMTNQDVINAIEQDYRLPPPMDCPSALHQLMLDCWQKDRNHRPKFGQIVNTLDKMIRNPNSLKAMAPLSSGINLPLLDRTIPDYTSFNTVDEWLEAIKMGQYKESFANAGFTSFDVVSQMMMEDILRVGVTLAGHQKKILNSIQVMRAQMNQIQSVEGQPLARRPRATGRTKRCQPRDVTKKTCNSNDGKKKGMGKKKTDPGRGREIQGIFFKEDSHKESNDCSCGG
Description: Inhibition of recombinant EphB2 (unknown origin) by cell-free assay.

Data set [7] can be described thus: AUC (0 to infinity) in Sprague-Dawley rat at 2.5 mg/kg, po. Also noted: time infinity, dose 2.5 mg/kg, route oral. The following applies: plasma. In kind it is ADME, organism-based.
The nature of data set [8]: Half life in Sprague-Dawley rat at 2.5 mg/kg, po. Format: ADME, organism-based. Also noted: dose 2.5 mg/kg, route oral. The following applies: in vivo.
Data set [9] can be described thus: Tmax in Sprague-Dawley rat at 2.5 mg/kg, po. In kind it is ADME, organism-based. The arrangement: dose 2.5 mg/kg, route oral. The following applies: in vivo.

As to `CNC(=O)c1cc(Oc2ccc(NC(=O)Nc3ccc(Cl)c(C(F)(F)F)c3)cc2)ccn1` [SORAFENIB], the Activity came to 5% in [1] and 34% in data set [2].
The term AUC denotes concentration integrated over time. Read a high AUC as high exposure. In general, Cmax refers to the highest concentration seen after dosing. As a reminder, the MRT is the average time that molecules of a dose stay in the body. One may read the IC50 as the concentration that gives 50% inhibition. For orientation: AUC(0-inf) means the area under the concentration-time curve extrapolated to infinity. The low end stands for less exposure, the high end for more exposure. A word on the half-life: it is how long it takes for the measured level to halve. Read a high half-life as slow loss. In general, Tmax refers to the time from dosing to the highest level. `[2H]C([2H])([2H])Oc1cc2nccc(Oc3ccc(NC(=O)Nc4cc(C)on4)c(Cl)c3)c2cc1OC([2H])([2H])[2H]` yielded an area under the curve (AUC) in data set [3] of 69700 ng·h/mL. In data set [4], this molecule returned a Cmax of 3980 ng/mL. In addition, in [5], the MRT is 15.8 h. Besides, in data set [6], the half-inhibitory concentration (IC50) came to 26.8 nM. The molecule further displayed an AUC(0-inf) in data set [7] of 73900 ng·h/mL. This molecule had a half-life in data set [8] of 11.1 h. In [9], the Tmax was 5 h.
`COc1cc2nccc(Oc3ccc(NC(=O)Nc4cc(C)on4)c(Cl)c3)c2cc1OC` [TIVOZANIB]: the AUC in data set [3] was 47500 ng·h/mL. This molecule returned a Cmax in [4] of 3060 ng/mL. The molecule further registered an MRT in data set [5] of 13.4 h. The half-maximal inhibitory concentration (IC50) in data set [6] was 17.5 nM. The AUC(0-inf) in [7] was found to be 49100 ng·h/mL. The same molecule gave a half-life in data set [8] of 9.35 h. In addition, the time to peak (Tmax) in data set [9] was 4.8 h. Besides, the Activity worked out at 21% in data set [1] and 44% in [2].
